This is an account of results in patent US8211912B2, “Compositions and methods for effecting NAD+ levels using a nicotinamide phosphoribosyl tranferase inhibitor” (Gemin X Pharmaceuticals Canada, priority 2007, dated 2012).

Where “and” joins values, the source holds several entries; their conditions need not be identical. Equal entries are not always repeated. Where two headings read alike, the source gives them in different places.

For series [1], the system named is HeLa cells. The note with it: Compound 1 20 nM, NM contained 0.1% NA. How it is done:
Viability was measured after 72 hours by ViaLight assay (assessing ATP levels). […] Each bar is the mean±SD of quadruplicate samples. Each figure is representative of two independent experiments.
Viability was measured after 72 hours by ViaLight assay. […] Each point represents the mean and error bars the SD of triplicate samples. […] The concentration of nicotinamide in RPMI 1640 media was […]. HeLa cells were transiently transfected with vector (pcDNA3) or a plasmid expressing a flag-tagged yeast PNC1 gene (pcFLAG-PNC1). […] Relative viability was assessed after 72 hours by ViaLight assay.

The nature of series [2]: Nicotinic acid as antidote to a lethal 24 h infusion of Compound 2 in non-tumor-bearing mice. To be noted: Compound 2 650 mg/kg 24 h infusion. As for the experimental part: CB17 SCID female mice, 5 mice per group, who were not bearing tumors were administered a lethal dose of Compound 2 as a 24 h infusion of Compound 2 at 650 mg/kg. Thereafter, mice were infused with saline for 24 h (Group 1); a niacin solution (12 mg/mL) for 4 hours at a dose of 90 mg/m2/h (30 mg/kg/h) followed by saline for another 20 h at a flow rate of 50 μL/h (Group 2); or a niacin solution (12 mg/mL) for 24 hours at a dose of 90 mg/m^2/h (30 mg/kg/h) with a flow rate of 50 μL/h.

Series [3] relates to Human Fibrosarcoma HT1080 cancer cells. In words: Xenograft of a cancer deficient in nicotinic acid pathway. Type of series: in vivo, mice. As for the experimental part:
Human Fibrosarcoma HT1080 cancer cells were maintained in RPMI (Hyclone, Utah, USA) supplemented with 10% inactivated fetal bovine serum (Bio-Whittaker, Md., USA) and 1% penicillin-streptomycin-L-Glutamine (Gibco; NY, USA), under 5% CO2 at 37° C. HT1080 cells were transplanted subcutaneously into the flank of female mice. Each mouse was inoculated with a suspension of 1×10^6 tumors cells per 100 μl in PBS on day zero.
Treatments started on day fifteen after HT1080 cells transplantation. […] The control group was treated with vehicle (0.9% NaCl) alone for 104 hours. Treatments were conducted using Lomir External pump—Model 220 with a flow rate of 50 μL/hr (˜2.5 mL/kg/hr) and equipped with 1 cc syringes for treated groups or equipped with 10 cc syringes for the control group. Compound 2 was prepared fresh for dosing and formulated in a vehicle solution of 10 mM citrate buffer at pH 4.8.
Observation continued for 22 days after initial tumor implantation.

The test system of series [4] is human multiple myeloma IM-9 cancer cells. The series is described as follows: Xenograft of a cancer not deficient in nicotinic acid pathway. The class given is in vivo, CB17 SCID mice. The note with it: Compound 2 150 mg/kg IV 24 hours infusion from day eight; observation 23 days. How it is done: Human multiple myeloma IM-9 cancer cells were maintained in RPMI (Hyclone, Utah, USA) supplemented with 10% inactivated fetal bovine serum (Bio-Whittaker; MD, USA) and 1% penicillin-streptomycin-L-Glutamine (Gibco; NY, USA), under 5% CO2 at 37° C. IM-9 cells were transplanted subcutaneously into the flank of female mice. Each mouse was inoculated with a suspension of 10×10^6 tumors cells per 100 μl in PBS on day zero.
Treatments started on day eight after IM-9 cells transplantation. […] The control group was treated with vehicle (0.9% NaCl) alone for 104 hours. […] Compound 2 was prepared fresh for dosing and formulated in a vehicle solution of 10 mM citrate buffer at pH 4.8.
Observation continued for 23 days after initial tumor implantation.

Series [5] can be described thus: Nicotinic acid pre-treatment against lethal intramuscular Compound 2 in non-tumor-bearing mice.
Series [6] in a line: Additional combination experiments with Compound 1. Type of series: cell-based.
Series [7] relates to DMS-114 human small cell lung carcinoma cells. The series is described as follows: Sensitization to DNA damaging chemotherapeutic agents, relative ATP viability, 3 days. The class given is cell-based. The note with it: for Fold change (IC50 in DMS-114 cells): without vs with 0.75 nM Compound 1.
Method: (§1) Cells were plated in logarithmic growth phase at 500-20,000 cells per well in 96-well clear bottom plates (Corning; Corning, N.Y.) and cultured for 14 to 16 hours prior to the start of drug treatment. Serial dilutions of Compound 2 and Compound 1 were made in DMSO, diluted 1:50 in RPMI-1640 (Hyclone; Logan, Utah) and then added to tissue culture media at a final concentration of 0.2% DMSO. […] Relative ATP levels were determined by the bioluminescent measuring of cellular ATP levels in each culture well with the ViaLight-HS High Sensitivity Cytotoxicity and Cell Proliferation BioAssay Kit (Cambrex Bioproducts, Cat. No. LT07-311; Charles City, Iowa) according to manufacturer's instructions. Briefly, a cell permeabilizing reagent was added to each culture well in media at the time of viability determination, allowing free ATP to be released from viable cells in the culture. Addition of luciferase to the mixture catalyzes the release of light proportional to the amount of free ATP present, which can then be quantified in a Centro LB 960 luminometer (EG&G Berthold; Oak Ridge, Tenn.); the level of ATP is generally directly proportional to the viability of the cells.
(§2) Sigmoidal dose response curves were then generated using non-linear regression analysis of variable slope by Prism Version 4.00 for Windows (GraphPad Software, Inc.; San Diego, Calif.) and IC50 values calculated.
(§3) The IC50 values for the treatment with the DNA damaging agent were calculated relative to control cells that were treated with DMSO only.
For series [8], the system named is Jurkat human T cell leukemia cells. The description is as above. To be noted: for Fold change (IC50 in Jurkat cells): without vs with 0.5 nM Compound 1.
Method: as §1, §2, §3
Series [9] concerns the target human NMPRT (Homo sapiens, UniProt P43490). The note with it: cited from earlier work.
[10] abbreviates: read-out: IC50 in DMS-114 cells (μM), DNA damaging chemotherapeutic agent + 0.75 nM Compound 1, with 0.75 nM Compound 1, 3 days, relative to Compound 1 only control.
Where [11] appears, read: read-out: IC50 in Jurkat cells (μM), DNA damaging chemotherapeutic agent + 0.5 nM Compound 1, with 0.5 nM Compound 1, 3 days, relative to Compound 1 only control.
Where [12] appears, read: Homo sapiens, DMS-114, 72 h, read-out: IC50 in DMS-114 cells (μM), DNA damaging chemotherapeutic agent + No Compound 1, agent alone, 3 days, relative to DMSO control.
The mark [13] stands for this setting: Homo sapiens, Jurkat, 72 h, read-out: IC50 in Jurkat cells (μM), DNA damaging chemotherapeutic agent + No Compound 1.

Chain of human NMPRT (P43490 whole entry): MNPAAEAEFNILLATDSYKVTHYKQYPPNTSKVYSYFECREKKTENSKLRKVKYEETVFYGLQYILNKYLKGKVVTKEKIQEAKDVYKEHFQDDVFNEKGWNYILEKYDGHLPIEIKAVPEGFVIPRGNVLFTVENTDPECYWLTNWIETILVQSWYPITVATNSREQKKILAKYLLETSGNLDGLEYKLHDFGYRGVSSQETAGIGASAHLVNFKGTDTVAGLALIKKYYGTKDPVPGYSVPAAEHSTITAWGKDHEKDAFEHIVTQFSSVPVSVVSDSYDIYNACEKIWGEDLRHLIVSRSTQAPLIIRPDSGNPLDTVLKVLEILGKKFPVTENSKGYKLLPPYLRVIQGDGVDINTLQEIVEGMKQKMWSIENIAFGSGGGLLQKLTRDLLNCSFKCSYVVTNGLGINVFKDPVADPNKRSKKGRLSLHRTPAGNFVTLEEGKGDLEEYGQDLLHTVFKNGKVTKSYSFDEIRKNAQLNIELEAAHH

Consider `NC(=O)c1cccnc1` [nicotinamide], for which the “Concentrations rescuing viability relative to those required for NA rescue” value in series [1] is 1,000 ×.

`COCCOCCOCCOCCOC(=O)OC[n+]1ccc(NC(=NC#N)NCCCCCCOc2ccc(Cl)cc2)cc1.[Cl-]` [Compound 2, 1-[2-(2-(2-(2-Methoxyethoxy)-ethoxy)-ethoxy)-ethoxy-carbonyloxymethyl]-4-[N′-cyano-N″-(6-(4-chlorophenoxy)-hexyl)-N-guanidino]-pyridinium chloride]: the “Mortality by day 5” value in series [2] (then nicotinic acid 90 mg/m^2/h for 4 h (Group 2)) is 0/4; in series [2] (then nicotinic acid 90 mg/m^2/h for 24 h (Group 3)) it was 0/5; in series [2] (then saline, no nicotinic acid (Group 1), 650 mg/kg), 3 of the 5 and 3/5. The “Tumor growth compared to vehicle” value was “statistically significant reduction in tumor growth” in series [3] (Compound 2 150 mg/kg IV 24 hours infusion from day fifteen, observation 22 days); “significant reduction in tumor growth” in series [3] (Compound 2 650 mg/kg IV 24 hours infusion); “statistically significant reduction in tumor growth” in series [4]. Also, the “Mortality in treatment group” value in series [3] (Compound 2 650 mg/kg IV 24 hours infusion, tumor-bearing mice) is recorded as “mortality of a mouse in this treatment group”. Moreover, the “Mortality by day 11” value in [5] (Compound 2 250 mg/kg intramuscular QD × 5, no nicotinic acid, 250 mg/kg) was 3 of the 5 and 3/5; in series [5] (Compound 2 250 mg/kg intramuscular QD × 5, nicotinic acid pre-treatment 200 mg/kg IV QD × 5), 0/5; in series [5] (Compound 2 250 mg/kg intramuscular QD × 5, nicotinic acid pre-treatment 200 mg/kg PO QD × 5) it was 0/5; in series [5] (Compound 2 250 mg/kg intramuscular QD × 5, nicotinic acid pre-treatment 200 mg/kg SC QD × 5), 0/5.

Take `O=P1(N(CCCl)CCCl)NCCCO1` (stereo not drawn) [Cyclophosphamide]: in series [6], the “Combination effect in the presence of Compound 1” value (from here on “Combination effect”) is listed as “less than additive effect”.

Turning to `Sc1ncnc2nc[nH]c12` [6-Mercaptopurine], the “Combination effect” value in series [6] is listed as “less than additive effect”.

As to `CN(N=O)C(=O)N[C@H]1C(O)O[C@H](CO)[C@@H](O)[C@@H]1O` (mixture of isomers) [Streptozotocin], the IC50 in series [7] (setting [10]) stood at 391 ± 152 µM; in series [7] (read-out: IC50 in DMS-114 cells (μM), DNA damaging chemotherapeutic agent + No Compound 1, agent alone, 3 days, relative to DMSO control), 3960 ± 2270 µM; in series [8] (setting [11]) it was 360 ± 304 µM; in series [8] (read-out: IC50 in Jurkat cells (μM), DNA damaging chemotherapeutic agent + No Compound 1, agent alone, 3 days, relative to DMSO control), 1014 ± 10 µM.

For `O=NN(CCCl)C(=O)NCCCl` [Carmustine], the IC50 in series [7] (setting [12]) was found to be 33.3 ± 7.3 µM; in [7] (setting [10]), 11.5 ± 3.6 µM; in series [8] (setting [13]) it was 2.97 ± 1.1 µM; in series [8] (setting [11]), 3.13 ± 0.49 µM. In addition, the “Fold change (IC50 in DMS-114 cells)” value in series [7] is 6.12 ± 7.5. The “Fold change (IC50 in Jurkat cells)” value in [8] was found to be 0.93 ± 0.21.

Take `CC(=O)O[C@H]1C(=O)[C@@]2(C)[C@H]([C@H](OC(=O)c3ccccc3)[C@]3(O)C[C@H](OC(=O)[C@H](O)[C@@H](NC(=O)c4ccccc4)c4ccccc4)C(C)=C1C3(C)C)[C@]1(OC(C)=O)CO[C@@H]1C[C@@H]2O` [Paclitaxel]: the “Combination effect” value in [6] is “less than additive effect”.

As for `CNNCc1ccc(C(=O)NC(C)C)cc1` [Procarbazine], the “Combination effect” value in series [6] is reported as “less than additive effect”.

For the compound `NC(=O)c1ncn([C@@H]2O[C@H](CO)[C@@H](O)[C@H]2O)n1` [Ribavirin], the IC50 came to 172 µM in series [7] (setting [12]), 173 µM in series [7] (setting [10]), 63.3 ± 10 µM in series [8] (setting [13]) and 15.5 ± 3.1 µM in [8] (setting [11]). In addition, the “Fold change (IC50 in DMS-114 cells)” value in series [7] was found to be 0.99. Besides, the “Fold change (IC50 in Jurkat cells)” value in series [8] was found to be 4.09 ± 0.16.

As for `Cn1nnc2c(C(N)=O)ncn2c1=O` [Temozolomide], the IC50 in series [7] (setting [12]) was 339 ± 190 µM; in [7] (setting [10]), 50.1 ± 7.83 µM; in series [8] (setting [13]) it was 212 ± 135 µM; in series [8] (setting [11]), 158 ± 125 µM. For the same compound, the “Fold change (IC50 in DMS-114 cells)” value in series [7] is on record as 2.53 ± .11. The “Fold change (IC50 in Jurkat cells)” value in [8] stood at 1.46 ± 0.26.

On to `O=C(/C=C/c1cccnc1)NCCCCC1CCN(C(=O)c2ccccc2)CC1` [FK866, (E)-N-[4-(1-benzoylpiperidin-4-yl)butyl]-3-(pyridin-3-yl)acrylamide], for which, in [9], the “Inhibition of human NMPRT” value is on record as “potent”.

What is called IC50 is the point on the concentration scale where inhibition reaches its midpoint.
